The text below walks through data of ChEMBL document CHEMBL5620397, “Design, synthesis and biological evaluation of 3-substituted-2-thioxothiazolidin-4-one (rhodanine) derivatives as antitubercular agents against Mycobacterium tuberculosis protein tyrosine phosphatase B” (Eur J Med Chem, 2023).

In series [1] the target is T1, Phosphotyrosine protein phosphatase (Mycobacterium tuberculosis, UniProt A0A045ISB3).
T1 sequence (A0A045ISB3 whole entry): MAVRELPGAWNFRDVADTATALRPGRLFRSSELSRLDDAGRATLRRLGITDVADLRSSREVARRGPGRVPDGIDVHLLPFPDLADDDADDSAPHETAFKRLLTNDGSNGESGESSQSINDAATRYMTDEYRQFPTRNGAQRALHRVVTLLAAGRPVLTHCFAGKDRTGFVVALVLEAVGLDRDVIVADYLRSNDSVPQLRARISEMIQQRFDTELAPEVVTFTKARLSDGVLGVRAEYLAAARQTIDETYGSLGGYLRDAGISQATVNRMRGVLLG
The series can be described thus: Inhibition of Mycobacterium tuberculosis ptpB.

Series [2] addresses T2, Triple specificity protein phosphatase PtpB (Mycobacterium tuberculosis (strain ATCC 25618 / H37Rv), UniProt I6WXK4).
T2 sequence (I6WXK4 whole entry): T1 sequence (A0A045ISB3 whole entry)
In words: Inhibition of Mycobacterium tuberculosis H37Rv ptpB expressed in Escherichia coli BL21(DE3) using pNPP as substrate preincubated for 10 mins followed by substrate addition and measured for 5 mins by spectrophotometer analysis.

For series [3], the target named is T3, Tyrosine-protein phosphatase non-receptor type 1 (Homo sapiens, UniProt P18031).
T3 sequence (P18031 whole entry): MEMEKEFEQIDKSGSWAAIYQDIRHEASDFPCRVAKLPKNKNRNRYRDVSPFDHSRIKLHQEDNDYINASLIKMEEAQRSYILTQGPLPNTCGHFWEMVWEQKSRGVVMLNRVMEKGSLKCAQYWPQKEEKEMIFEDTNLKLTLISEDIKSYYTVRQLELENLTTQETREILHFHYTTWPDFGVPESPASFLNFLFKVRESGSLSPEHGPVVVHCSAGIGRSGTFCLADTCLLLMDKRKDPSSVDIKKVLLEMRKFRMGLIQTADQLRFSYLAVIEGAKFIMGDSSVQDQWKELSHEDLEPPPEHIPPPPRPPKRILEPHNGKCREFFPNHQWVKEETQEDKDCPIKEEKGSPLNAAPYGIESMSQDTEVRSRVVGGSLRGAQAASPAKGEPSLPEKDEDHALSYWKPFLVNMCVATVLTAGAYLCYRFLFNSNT
The series can be described thus: Inhibition of recombinant human PTP1B using pNPP as substrate preincubated for 5 mins followed by substrate addition and measured for 10 mins. It is filed as toxicity.

Series [4] can be described thus: Metabolic stability in human liver microsomes assessed as substrate remaining preincubated for 5 mins followed by NADPH addition and measured upto 30 mins by LC-MS/MS assay. It is filed as ADME, Microsome. Conditions: time < 35 min, read-out: Stability. On the technique in general: Microsomes from liver hold many membrane-bound enzymes, among them those of drug oxidation.

Series [5] is described as follows: Metabolic stability in human liver microsomes assessed as half life preincubated for 5 mins followed by NADPH addition and measured upto 30 mins by LC-MS/MS assay. Conditions: time < 35 min. It is filed as ADME, Microsome.
The nature of series [6]: Metabolic stability in mouse liver microsomes assessed as half life preincubated for 5 mins followed by NADPH addition and measured upto 30 mins by LC-MS/MS assay. The class given is ADME, Microsome. Conditions: time < 35 min.
Series [7] can be described thus: Cytotoxicity against mouse J774.G8 cells after 48 hrs by MTT assay. It is filed as functional, cell-based. Conditions: J774.G8, 48 h. For orientation: Tetrazolium dyes change colour on reduction, which living cells bring about.
Series [8] relates to PTP1B versus M. tuberculosis ptpB. The series can be described thus: Selectivity index, ratio of IC50 for human PTP1B to Mycobacterium tuberculosis H37Rv ptpB. The class given is toxicity. Conditions: read-out: Ratio IC50.
The target of series [9] is T4, Low molecular weight protein-tyrosine phosphatase A (Mycobacterium tuberculosis) (UniProt P9WIA1).
T4 sequence (whole entry): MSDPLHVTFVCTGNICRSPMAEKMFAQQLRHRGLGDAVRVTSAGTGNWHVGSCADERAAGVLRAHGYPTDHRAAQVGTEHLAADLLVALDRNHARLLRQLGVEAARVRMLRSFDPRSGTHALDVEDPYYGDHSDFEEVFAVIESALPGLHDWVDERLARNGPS
In words: Inhibition of Mycobacterium tuberculosis H37Rv ptpA expressed in Escherichia coli BL21(DE3) at 10 uM using pNPP as substrate preincubated for 10 mins followed by substrate addition and measured for 5 mins by spectrophotometer analysis relative to control. Conditions: time 15.0 min.

Series [10] in a line: Metabolic stability in mouse liver microsomes in absence of NADPH by LC-MS/MS assay. The class given is ADME, Microsome.
A short description of series [11]: Metabolic stability in mouse liver microsomes assessed as substrate remaining preincubated for 5 mins followed by NADPH addition and measured upto 30 mins by LC-MS/MS assay. It is filed as ADME, Microsome. Conditions: time < 35 min, read-out: Stability.
Series [12] deals with Mycobacterium tuberculosis. In words: Antituberculosis activity against Mycobacterium tuberculosis H37Rv by microplate alamar blue assay. The class given is functional. On the technique in general: Alamar Blue is a resazurin reagent that responds to reducing activity.
The target in series [13] is T5, Triple specificity protein phosphatase PtpB (Mycobacterium tuberculosis (strain ATCC 25618 / H37Rv)) (UniProt I6WXK4).
T5 sequence (whole entry): T1 sequence (A0A045ISB3 whole entry)
In words: (§1) Inhibition of Mycobacterium tuberculosis H37Rv ptpB expressed in Escherichia coli BL21(DE3) at 50 uM using pNPP as substrate preincubated for 10 mins followed by substrate addition and measured for 5 mins by spectrophotometer analysis relative to control. Conditions: time 15.0 min.

The next series relates to Vero. In words: cells. Conditions: Chlorocebus sabaeus, 48 h.
The nature of series [14]: Metabolic stability in human liver microsomes assessed as intrinsic clearance per mg protein preincubated for 5 mins followed by NADPH addition and measured upto 30 mins by LC-MS/MS assay. The class given is ADME, Microsome. Conditions: time < 35 min, read-out: CLH.
A short description of series [15]: Metabolic stability in human liver microsomes in absence of NADPH by LC-MS/MS assay. The class given is ADME, Microsome.
Series [16] can be described thus: Metabolic stability in mouse liver microsomes assessed as intrinsic clearance per mg protein preincubated for 5 mins followed by NADPH addition and measured upto 30 mins by LC-MS/MS assay. Conditions: time < 35 min, read-out: CLH. It is filed as ADME, Microsome.
Series [17] concerns Mycobacterium tuberculosis. In words: Antituberculosis activity against Mycobacterium tuberculosis H37Rv in mouse J774A.1 cells assessed as reduction in intracellular bacterial burden measured after 21 days by agar plate method. The class given is functional, organism-based. Conditions: J774.A1, dose 1-10 µg/ml, time 21.0 day.
The target in series [18] is Triple specificity protein phosphatase PtpB (Mycobacterium tuberculosis (strain ATCC 25618 / H37Rv)) (UniProt I6WXK4). The description is as §1. Conditions: time 15.0 min. The source holds these as a separate data set.
For series [19], the target named is T2, Triple specificity protein phosphatase PtpB. The series can be described thus: Inhibition of Mycobacterium tuberculosis H37Rv ptpB using pNPP as substrate preincubated for 10 mins followed by substrate addition and measured for 5 mins by spectrophotometer analysis.
Series [20] deals with Mycobacterium tuberculosis. The series can be described thus: Antituberculosis activity against Mycobacterium tuberculosis H37Rv in mouse J774A.1 cells assessed as reduction in intracellular bacterial burden at 0.5 ug/ml measured after 21 days by agar plate method. It is filed as functional, J774.A1. More on the design: scale not given: the % may be the effect or the level left. Conditions: dose 0.5 µg/ml; time 21 day.

A short description of series [21]: Permeability in human Caco-2 cells at 3 uM incubated for 90 mins by LC-MS/MS analysis. It is filed as ADME, cell-based. Conditions: read-out: permeability.
Series [22] addresses T6, Low molecular weight protein-tyrosine phosphatase A (Mycobacterium tuberculosis, UniProt P9WIA1).
T6 sequence (P9WIA1 whole entry): T4 sequence (whole entry)
In words: Inhibition of Mycobacterium tuberculosis H37Rv ptpA expressed in Escherichia coli BL21(DE3) using pNPP as substrate preincubated for 10 mins followed by substrate addition and measured for 5 mins by spectrophotometer analysis.

In series [23] the test system is Mycobacterium tuberculosis. The series can be described thus: Antituberculosis activity against Mycobacterium tuberculosis H37Rv in mouse J774A.1 cells assessed as reduction in bacterial burden at 10 ug/ml measured after 21 days in presence of RFP by agar plate method. It is filed as functional, J774.A1. Conditions: dose 10 µg/ml; time 21 day. More on the design: scale not given: the % may be the effect or the level left.

Series [24] concerns Mycobacterium tuberculosis. The series can be described thus: Antituberculosis activity against Mycobacterium tuberculosis H37Rv in mouse J774A.1 cells assessed as reduction in intracellular bacterial burden at 10 ug/ml measured after 21 days by agar plate method. It is filed as functional, J774.A1. More on the design: scale not given: the % may be the effect or the level left. Conditions: dose 10 µg/ml; time 21 day.

Converted amounts (≈) assume the structure as drawn.

Description for Vero: Cytotoxicity against african green monkey Vero cells after 48 hrs by MTT assay

As to `O=C1OC(c2ccccc2C(F)(F)F)C(c2ccc3ccccc3n2)=C1O` (configuration not stated), half-maximal inhibition in series [1] (IC50) required 31100 nM.

Consider `O=C(O)[C@H](C1CCCCC1)N1C(=O)/C(=C/c2ccc(-c3cccc(C(F)(F)F)c3)cc2)SC1=S`, for which the half-maximal inhibitory concentration (IC50) in [2] is 350 nM; in [3], 1750 nM; in series [7], 38 µg/mL (≈ 75.2 µM); in the series with Vero, 30.6 µg/mL (≈ 60.5 µM). Also, the remaining at 0.5 h in series [4] came out at 101%; in series [11] it was 80%. For the same molecule, the half-life in [5] and in [6] was greater than 93.2 min throughout. For the same molecule, the selectivity ratio in [8] was found to be 5. Also, the inhibition was found to be 16.6% in series [9] and 96.5% in series [13]. The Stability result in [10] and in series [15] was “Stable” throughout. Further, the MIC in series [12] worked out at 31.4 µg/mL (≈ 62.1 µM). For the same molecule, the microsomal CLint in series [14] is less than 6.1 µL/min/mg; in series [16], less than 22.1 µL/min/mg. Further, in [17], the Activity result was “Dose-Dependent Effect”.

Consider `Cc1onc(C(=O)O)c1-c1cccc(-c2cc(Cl)c(O)c(Cl)c2)c1`, for which the IC50 in series [1] was found to be 2980 nM.

As for SODIUM ORTHOVANAD, the inhibition in series [18] was 97.4%.

The molecule `O=C1NC(=S)NC(=O)C1Cc1cc(Br)ccc1OCc1ccc(Cl)cc1` came in with an IC50 in series [19] of 22.4 µM. In series [12], this molecule had an MIC greater than 32 µg/mL.

The molecule `CCOC(=O)C1=C(C)Oc2nc(C)n(Cc3cn([C@@H]4O[C@H](COC(C)=O)[C@@H](OC(C)=O)[C@H](OC(C)=O)[C@H]4OC(C)=O)nn3)c(=O)c2C1c1cc(OC)c(OC)c(OC)c1` (some centres not stated) registered an IC50 in [1] of 1560 nM.

With `CO[C@H]1/C=C/O[C@@]2(C)Oc3c(C)c(O)c4c(O)c(c(/C=N/N5CCN(C)CC5)c(O)c4c3C2=O)NC(=O)/C(C)=C\C=C\[C@H](C)[C@H](O)[C@@H](C)[C@@H](O)[C@@H](C)[C@H](OC(C)=O)[C@@H]1C` [RIFAMPIN], the IC50 (in series [7]; in the series on Vero) was greater than 64 µg/mL throughout. Moreover, in series [12], the MIC is 0.023 µg/mL (≈ 0.0279 µM). The Activity in series [20] is recorded as greater than 85%.

Turning to `CCCC[C@@H](C(=O)O)N1C(=O)/C(=C/c2ccc(-c3cccc(C(F)(F)F)c3)cc2)SC1=S`, the Papp at 1.5 h, 3 µM in series [21] worked out at 16.9 ×10⁻⁶ cm/s. In addition, the IC50 in series [2] is 640 nM; in [3] it was 4140 nM; in series [7], 50.3 µg/mL (≈ 105 µM); in series [22], 4.06 µM; in the series with Vero it was 32.2 µg/mL (≈ 67.1 µM). Further, the results for the remaining at 0.5 h in series [4] and in series [11] were 95.9% and 101%, respectively. The half-life in [5] and in series [6] was greater than 93.2 min throughout. The selectivity ratio in [8] came out at 7. Besides, the Stability entry in [10] and in series [15] was “Stable” throughout. Also, the Activity was greater than 95% in [23], greater than 85% in [24] and “Dose-Dependent Effect” in [17]. It took 31.1 µg/mL (≈ 64.9 µM) to inhibit growth in [12] (MIC). Moreover, the inhibition in [13] was 104%. Also, the microsomal CLint is less than 6.1 µL/min/mg in series [14] and less than 22.1 µL/min/mg in series [16].

The IC50 is the point on the concentration scale where inhibition reaches its midpoint. In general, half-life refers to the time needed for the level to fall by half in the phase considered. A word on the inhibition: it is the change of the read-out against control, counted positive when it falls. A word on the MIC: it is the lowest concentration found to suppress growth.
